Experimental data published in patent US5622947A, “Benzoheterocyclic compounds and vasopressin antagonist and oxytocin antagonist compositions containing a benzoheterocyclic compound” (Otsuka Pharmaceutical Co., Ltd., priority 1992, dated 1997).
Structures can show the parent of a compound that is named as a salt.

How the values were obtained:
[1] = biological target: T1, Oxytocin receptor (uterin muscle membrane preparation) (Rattus norvegicus, UniProt P70536); test: Oxytocin receptor binding assay; details: [3H]-oxytocin 10^-9 M, 25°, one hour, pH 8.0, uterin muscle membrane, DES-treated
T1 construct: was homogenized, which was used as a membrane; from tissue; host or cells: uterine muscle membranes from diethylstilbestrol-treated animals
T1 sequence (P70536 1-388): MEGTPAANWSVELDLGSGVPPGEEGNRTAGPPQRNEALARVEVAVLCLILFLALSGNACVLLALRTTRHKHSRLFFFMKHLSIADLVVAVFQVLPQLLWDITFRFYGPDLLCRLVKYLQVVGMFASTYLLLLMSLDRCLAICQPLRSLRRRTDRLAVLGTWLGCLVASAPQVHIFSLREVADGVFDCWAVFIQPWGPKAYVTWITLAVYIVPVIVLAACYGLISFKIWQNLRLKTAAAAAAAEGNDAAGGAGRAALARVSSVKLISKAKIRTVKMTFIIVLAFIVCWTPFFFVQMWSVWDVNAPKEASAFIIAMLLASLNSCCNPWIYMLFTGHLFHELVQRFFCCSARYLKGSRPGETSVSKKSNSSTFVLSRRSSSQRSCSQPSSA
How it was run: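 Rat uterine membranes (0.2 mg; DES-primed day before) incubated 1 h at 25° with [3H]-oxytocin (10^-9 M) and compound (10^-9 to 10^-5 M) in 100 mM Tris-HCl pH 8.0, 5 mM MgCl2, 1 mM EDTA, 0.1% BSA. Filter-bound radioactivity counted; nonspecific with 5×10^-6 M oxytocin; IC50 reported.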

[2] = biological target: T2, V2 Recepter (rat kidney plasma membrane preparations) (Rattus norvegicus, UniProt Q00788); test: V2 Recepter binding assay; details: [3H]-Arg-vasopressin 4×10^-10 M, 4° C., pH 8.0, rat kidney plasma membrane
T2 construct: rat kidney plasma membrane preparations; from tissue; host or cells: rat kidney plasma membranes
T2 sequence (Q00788 whole entry): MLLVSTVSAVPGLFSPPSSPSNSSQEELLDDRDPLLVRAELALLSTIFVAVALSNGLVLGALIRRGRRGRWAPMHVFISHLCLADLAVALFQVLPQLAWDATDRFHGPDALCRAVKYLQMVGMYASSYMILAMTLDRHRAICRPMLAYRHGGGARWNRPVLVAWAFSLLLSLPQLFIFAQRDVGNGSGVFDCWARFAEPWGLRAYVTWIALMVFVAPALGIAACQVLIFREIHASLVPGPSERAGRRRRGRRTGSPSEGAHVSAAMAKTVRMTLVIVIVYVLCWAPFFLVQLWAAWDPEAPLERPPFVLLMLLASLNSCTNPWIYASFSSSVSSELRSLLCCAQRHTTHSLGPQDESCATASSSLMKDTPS
Procedure: Test 2: V2 Recepter binding assay
By using rat kidney plasma membrane preparations prepared according to Hechter's method [by O. Hechter: J. Bio. Chem., 2.53, 3211 (1978)], the plasma membrane (100,000 dpm, 4×10^-10 M) of [^3 H]-Arg-vasopressin and a test compound (0.6 mg, 10^-10 to 10^-5 M) were incubated at 4° C. for 3 hours in 250 μl (in total volume) of 100 mM Tris-HCl buffer (pH=8.0), containing, 5 mM MgCl2, 1 mM EDTA and 0.1% BSA. After the incubation, the mixture, the mixture was filtered by using a glass filter (GF/F) so as to separate the membrane preparation combining with vasopressin, then washed twice with the buffer (5 ml). This glass filter was taken out and mixed with liquid scintillation cocktail. The amount of [^3 H]-vasopressin combining with the membrane was measured by a liquid scintillation counter and the rate of inhibitory effect of the test compound was calculated according to the following equation: Rate of the inhibitory
C1 : the amount of [^3 H]-vasopressin combining with the membrane in the presence of the testcompound of a known amount,
(§1) C0 : the amount of [^3 H]-vasopressin combining with the membrane in the absence of the test compound,
B1 : the amount of [^3 H]-vasopressin combining with the mebrane in the presence of the excess amount of vasopressin (10^-6 M).
The results are expressed as IC50 value, which is the concentration of the test compound required to achieve the inhibitory effect in the rate of 50%, and are shown in the following Table 157.

[3] = biological target: T3, V1 Recepter (rat liver plasma membrane preparations) (Rattus norvegicus, UniProt P30560); test: V1 Recepter binding assay; details: [3H]-Arg-vasopressin 2×10^-10 M, 37° C., 10 minutes, pH 8.0, rat liver plasma membrane
T3 construct: rat liver plasma membrane preparations; from tissue; host or cells: rat liver plasma membranes
T3 sequence (P30560 whole entry): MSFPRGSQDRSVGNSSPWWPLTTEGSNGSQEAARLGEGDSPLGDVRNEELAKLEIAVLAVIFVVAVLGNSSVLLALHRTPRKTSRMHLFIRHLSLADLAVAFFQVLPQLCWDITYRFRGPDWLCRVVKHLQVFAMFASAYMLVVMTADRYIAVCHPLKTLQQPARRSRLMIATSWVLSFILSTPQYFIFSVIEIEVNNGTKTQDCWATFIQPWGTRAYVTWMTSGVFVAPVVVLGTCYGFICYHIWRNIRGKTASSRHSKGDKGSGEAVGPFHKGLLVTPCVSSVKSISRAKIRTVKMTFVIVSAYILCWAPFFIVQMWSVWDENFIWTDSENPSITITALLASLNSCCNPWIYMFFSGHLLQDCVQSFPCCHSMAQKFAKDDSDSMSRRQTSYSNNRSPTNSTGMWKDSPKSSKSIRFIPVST
Procedure: Test-1: V1 Recepter binding assay
By using rat liver plasma membrane preparations prepared according to Ichiraha's method [by Akira Ichihara: J. Bio. Chem., 258, 9283 (1983)], the plasma membrane (50,000 dpm, 2×10^-10 M) of [^3 H]-Arg-vasopressin and a test compound (60 μg, 10^-8 to 10^-4 M) were incubated at 37° C. for 10 minutes in 250 μl (in total volume) of 100 mM Tris-HCl buffer (pH=8.0), containing 5 mM MgCl2, 1 mM EDTA and 0.1% BSA. After the incubation, the mixture was filtered three times by using a glass filter (GF/F) so as to separate the membrane preparation by combining with vasopressin and then washed with the buffer (5 ml). This glass filter was taken out and mixed with a liquid of scintillation cocktail. The amount of [^3 H]-vasopressin combining with the membrane was measured by liquid scintillation counter and the rate of inhibitory effect of the test compound was calculated according to the following equation: […]
C1 : the amount of [^3 H]-vasopressin combining with the membrane in the presence of the test compound of a known amount,
as §1
B1 : the amount of [^3 H]-vasopressin combining with the membrane in the presence of the excess amount of vasopressin (10^-6 M).
The results are expressed as IC50 value, which is the concentration of the test compound required to achieve the inhitory effect in the rate of 50% and are shown in the following Table 156.

| Structure (SMILES) | IC50 [1] | IC50 [2] | IC50 [3] |
| --- | --- | --- | --- |
| CCOC(=O)NCCOC1CCCN(C(=O)c2ccc(NC(=O)c3ccccc3Cl)cc2OC)c2ccc(Cl)cc21 (stereo not drawn) [Example 137, 5-(2-Ethoxycarbonylaminoethoxy)-7-chloro-1-[2-methoxy-4-(2-chlorobenzoylamino)benzoyl]-2,3,4,5-tetrahydro-1H-benzoazepine] | 451 nM | 5 nM | 17 nM |
| COc1cc(NC(=O)c2ccccc2Cl)ccc1C(=O)N1CCCC(OCC[S+]([O-])c2ccncc2)c2cc(Cl)ccc21 (stereo not drawn) [Example 143, 5-[2-(4-Pyridyl)sulfinylethoxy]-7-chloro-1-[2-methoxy-4-(2-chlorobenzoylamino)benzoyl]-2,3,4,5-tetrahydro-1H-benzoazepine] | 200 nM | 22 nM | 13 nM |
| COc1cc(NC(=O)c2ccccc2Cl)ccc1C(=O)N1CCCC(OCCS(=O)(=O)c2ncc[nH]2)c2cc(Cl)ccc21 (stereo not drawn) [Example 145, 5-[2-(2-Imidazolyl)sulfonylethoxy]-7-chloro-1-[2-methoxy-4-(2-chlorobenzoylamino)benzoyl]-2,3,4,5-tetrahydro-1H-benzoazepine] | 849 nM | 14 nM | 91 nM |
| COc1cc(NC(=O)c2ccccc2Cl)ccc1C(=O)N1CCCC(NC(=O)c2ccccc2Cl)c2cc(Cl)ccc21 (stereo not drawn) [Example 159, 5-(2-Chlorobenzoylamino)-7-chloro-1-[2-methoxy-4-(2-chlorobenzoylamino)benzoyl]-2,3,4,5-tetrahydro-1H-benzoazepine] | 1700 nM | 25 nM | 280 nM |
| CCOC(=O)N1CCN(CCC2CCCN(C(=O)c3ccc(NC(=O)c4ccccc4Cl)cc3OC)c3ccc(Cl)cc32)CC1 (stereo not drawn) [Example 147, 5-[2-(4-Ethoxycarbonyl-1-piperazinyl)ethyl]-7-chloro-1-[2-methoxy-4-(2-chlorobenzoylamino)-benzoyl]-2,3,4,5-tetrahydro-1H-benzoazepine] | 504 nM | 14 nM | 39 nM |
| CCN(CC)CCCNCCOC1CCCN(C(=O)c2ccc(NC(=O)c3ccccc3Cl)cc2OC)c2ccc(Cl)cc21 (stereo not drawn) [Example 153, 5-[2-(3-Diethylaminopropyl)aminoethoxy]-7-chloro-1-[2-methoxy-4-(2-chlorobenzoylamino)benzoyl]-2,3,4,5-tetrahydro-1H-benzoazepine] | 248 nM | 5 nM | 36 nM |

These reach a lower IC50 [1]. Values come first.

| IC50 [1] | IC50 [2] | IC50 [3] | Structure (SMILES) |
| --- | --- | --- | --- |
| 177 nM | 8.5 nM | 5.5 nM | COc1cc(C(=O)N2CCCC(OCC(=O)NCCN3CCCCC3)c3cc(Cl)ccc32)ccc1NC(=O)c1ccccc1Br (stereo not drawn) [Example 167, 5-[2-(1-Piperidinyl)ethyl]aminocarbonylmethoxy-7-chloro-1-[3-methoxy-4-(2-bromobenzoylamino)benzoyl]-2,3,4,5-tetrahydro-1H-benzoazepine] |
| 147 nM | 5.6 nM | 7 nM | C=CCNCCOC1CCCN(C(=O)c2ccc(NC(=O)c3ccccc3Cl)cc2OC)c2ccc(Cl)cc21 (stereo not drawn) [Example 169, 5-(2-Allylaminoethoxy)-7-chloro-1-[2-methoxy-4-(2-chlorobenzoylamino)benzoyl]-2,3,4,5-tetrahydro-1H-benzoazepine.cndot.hydrochloride] |
| 130 nM | 14 nM | 31 nM | COc1cc(NC(=O)c2ccccc2Cl)ccc1C(=O)N1CCCC(CC(=O)Nc2ccccc2Cl)c2cc(Cl)ccc21 (stereo not drawn) [Example 158, 5-(2-Chloroanilino)carbonylmethyl-7-chloro-1-[2-methoxy-4-(2-chlorobenzoylamino)benzoyl]-2,3,4,5-tetrahydro-1H-benzoazepine] |
| 37 nM | 4 nM | 8 nM | COc1cc(NC(=O)c2ccccc2Cl)ccc1C(=O)N1CCCC(CC(=O)N2CCCN(C)CC2)c2cc(Cl)ccc21 (stereo not drawn) [Example 125, 5-(4-Methyl-1-homopiperazinyl)carbonylmethyl-7-chloro-1-[2-methoxy-4-(2-chlorobenzoylamino)benzoyl]-2,3,4,5-tetrahydro-1H-benzoazepine] |
